From patent publication US12552854B2, “Peptides that block presentation of antigenic islet peptides by HLA-DQ8 and methods for treating type-1 diabetes” (Icahn School of Medicine at Mount Sinai, priority 2019, dated 2026)
Entries after “also recorded” stand apart in the source; their conditions may differ.

How the values were obtained:
[1] = test system: splenocytes isolated from SJL-DQ8 mice; test: Ex vivo CFSE T-cell proliferation, splenocytes of InsB:9-23-immunized SJL-DQ8 mice; assay type: cell-based, mouse; settings: all peptides at 50 μg/ml; 5 days
Description: ID NO: 23) and reverse primer [NT]

[2] = test system: PBMCs isolated from DQ8 positive T1D patients; test: CFSE T-cell proliferation in PBMCs from DQ8 positive recent-onset T1D patients; assay type: cell-based, human; settings: all peptides at 50 μg/ml
Description: (§1) Subjects with a diagnosis of T1D within the previous 2 years were recruited from the Pediatric Endocrine clinic at Children Hospital at Montefiore and from the adult Endocrine clinics at Montefiore and Mount Sinai Hospitals (New York). Peripheral blood mononuclear cells (PBMCs) were isolated from heparinized blood using Ficoll-Paque (GE Healthcare); freshly isolated PBMCs were used for T-cell activation studies and for genotyping. DNA purified from the blood of the patients was typed for HLA-DQ as previously described (32). PBMCs isolated from DQ8 positive patients were seeded in 96 well plates with 200 μl medium (RPMI, 10% FBS). […] The stimulated PBMCs were assessed for cytokine production and T-cell proliferation as described above for mouse splenocytes. DQ8 typed patients with long standing T1D (>10 years) were used as negative controls in the experiments (no T-cell responses to islet peptides).

[3] = Pharmacokinetics of RI-CT in male CD-1 mice; settings: mouse, in vivo
Method: 30 μL of each STD, QC sample and matrix for blanks was added to separate wells of a 96 well plate. 800 μL of water:MeOH (95:5, v/v) was added to the STDs, QCs and blanks. For study samples, 400 μL of water:MeOH (95:5, v/v) was added to each. Mouse whole blood samples were diluted 1:2 with 0.1% formic acid in an aqueous 25 mM EDTA solution when samples were collected; consequently, there was an initial dilution factor of 3. Additionally, 400 μL of water:MeOH (95:5, v/v) was added to each diluted sample. To all samples, 20 μL of internal standard (200 ng/mL tolbutamide) solution in water was added. The samples were vortexed vigorously for 5 minutes and then loaded onto a pre-conditioned Oasis HLB 96-well SPE plate. The Oasis HLB 96-well SPE plate was conditioned with 1 mL of methanol and then rinsed with 1 mL of water before the samples were loaded. Once loaded onto the Oasis HLB 96-well SPE plate, residual solution was removed by vacuum. The samples were eluted into a clean 96-well plate with 800 μL of ACN: 0.1% aqueous formic acid (70:30, v/v). The samples were evaporated to dryness under nitrogen at ambient temperature using a TurboVap 96 Concentration Workstation (Caliper Life Sciences). The residues were reconstituted in 150 μL of ACN: 0.1% aqueous formic acid (25:75, v/v) and 10 μL of 0.1 M TCEP. The samples were vortexed for approximately 10 minutes and then aliquots were injected for LC-MS/MS analysis.
• LC System: System #731 • HPLC Pump: Shimadzu LC-30AD • Autosampler: Shimadzu SIL-30AC MP HPLC Conditions: • Mobile Phase A=0.1% Aqueous Formic Acid • Mobile Phase B=0.1% Formic Acid in ACN • Column Temperature=Ambient • Injection Volume=8 μL • Column=ACE C8, 2.1×50 mm, 5 μm • Flow rate=0.6 mL/min • MS/MS System: System #730 • SCIEX API 5500 Triple Quad (S/N 213451604) MS Conditions: • Scan Type=MRM • Polarity=Positive • Ion Source=ESI • CAD=10 • CUR=20 • GS1/GS2=50/50 • IS=2500 • TEM=550

[4] = Metabolic stability in mouse hepatocytes; assay type: in vitro ADME; settings: 1 μM
Method: Cryopreserved mouse hepatocytes were thawed at 37° C. in water bath until the ice was almost melted (˜90 seconds). The suspensions from the each were immediately transferred to 50 mL centrifuge tubes containing pre-warmed thawing media (VitroGRO HT Medium, Thawing) at 37° C. The cell suspensions were centrifuged at 50 g for 5 minutes at 4° C. (SYS679). Supernatants were discarded and the pellets were re-suspended in pre-warmed 3 mL incubation media (from in vitroGRO HT Medium, Incubation) at 37° C. The percentages of viable cells in the suspension were determined by using the Trypan Blue stain method (20 μL of tryptan blue and 20 μL of cell suspension) DF=2. Cryo mouse hepatocyte (Bioreclamation, lot #CHV) viability was 72.62% (viable/dead=305/115), and the total cells were 4.57 million. 1.57 mL of incubation media was added to cell concentration to get 1 million cells/mL. 10 μl of 100 μM test compounds stock in ACN:H2O (v:v, 1:1) was added to 990 μl of hepatocyte suspension/incubation media in a 24-well plate. 10 μl of 20 μM Midazolam was added to 990 μl of hepatocyte suspension as a positive control in a 24-well plate. The cells were incubated in a 37° C. incubator (SYS431) for 4 hours. 50 μl of aliquots (n=2) were added to 800 ul of MeOH:water (v:v, 5:95) at 0, 15, 30, 60, 120, 180 and 240 minutes. For all samples, 20 μL of internal standard (200 ng/mL tolbutamide) was added to the solution in water. The samples were vortexed vigorously for 5 minutes and then loaded onto a pre-conditioned Oasis HLB 96-well SPE plate (10 mg, […]). The Oasis HLB 96-well SPE plate was conditioned with 1 mL of methanol and then rinsed with 1 mL of water before the samples were loaded. Once loaded onto the Oasis HLB 96-well SPE plate, residual solution was removed by vacuum. The samples were eluted into a clean 96-well plate with 800 μL of 0.1% formic acid in 70% acetonitrile. The samples were evaporated to dryness under nitrogen at ambient temperature using a TurboVap 96 Concentration Workstation (Caliper Life Sciences). […]

[5] = test system: PBMCs isolated from DQ8 positive T1D patients; test: Cytokine production in PBMCs from DQ8 positive recent-onset T1D patients; assay type: cell-based, human; settings: stimulated with InsB:9-23 for 48 h; all peptides at 50 μg/ml
Description: as §1

SMILES: CC(C)C[C@@H](NC(=O)[C@@H](Cc1ccc(O)cc1)NC(=O)[C@@H](CC(C)C)NC(=O)[C@H](NC(=O)[C@@H](CS)NC(=O)CNC(=O)[C@@H](CCC(=O)O)NC(=O)[C@@H](CCCNC(=N)N)NC(=O)CNC(=O)CN)C(C)C)C(=O)N[C@H](C)C(=O)N[C@H](CCC(=O)O)C(=O)N[C@@H](C(=O)NCC(=O)NCC(=O)O)C(C)C [RI-CT]
- T-cell proliferation induced by InsB:9-23 (CFSE assay), SJL-DQ8 splenocytes [1]: significantly suppressed; also recorded: significantly decreased
- T-cell proliferation induced by InsB:9-23 (CFSE assay), PBMCs of DQ8 positive T1D patients [2]: significantly suppressed; also recorded: significantly decreased
- clearance ([3]; iv, 10 mg/kg): 27 mL/min/kg
- half-life ([3]; iv, 10 mg/kg): 448 min
- AUC(0-inf) ([3]; sc, 10 mg/kg): 4140 ng·h/mL
- Cmax ([3]; sc, 10 mg/kg): 5120 ng/mL
- Tmax ([3]; sc, 10 mg/kg): 46.2 min
- bioavailability ([3]; sc, 10 mg/kg): 47%
- half-life ([3]; sc, 10 mg/kg): 361 min
- Vd ([3]; IV, single dose of 10 mg/kg, whole blood, read-out: volume of distribution): 6.9 L/kg
- consumption of the peptide after incubation with murine hepatocytes ([4]; 4 hours): little/no consumption
- metabolic stability (comparison) ([4]; mouse hepatocytes): higher metabolic stability compared to RI-EXT
- IFN-γ production, PBMCs of DQ8 positive T1D patients [5]: significantly suppressed; also recorded: significantly decreased
- IL-2 production, PBMCs of DQ8 positive T1D patients [5]: significantly suppressed; also recorded: significantly decreased
